Assay results published in US8680111B2 (Pfizer Inc., priority 2012, dated 2014).

Columns and labels:
[1] = biological target: T1, human recombinant L1196M ALK kinase domain (amino acids 1093-1411) (Homo sapiens, UniProt Q9UM73, L1196M); assay: L1196M mutant ALK enzyme assay (microfluidic mobility shift); format: biochemical; settings: ATP 60 μM, 0.5 nM enzyme, competitive inhibition fit; read-out: L1196M ALK enzyme assay (Ki)
T1 construct: ALK kinase domain (amino acids 1093-1411); made in house

[2] = biological target: T2, human recombinant wild-type ALK kinase domain (amino acids 1093-1411) (Homo sapiens, UniProt Q9UM73); assay: Wild-type ALK enzyme assay (microfluidic mobility shift); format: biochemical; settings: ATP 60 μM, competitive inhibition fit, read-out: WT ALK enzyme assay (Ki)
T2 construct: ALK kinase domain (amino acids 1093-1411); made in house
Procedure: The reactions were incubated for 1 h at room temperature, stopped by the addition of 0.1 M EDTA, pH 8, and the extent of reactions (˜15-20% conversion with no inhibitor) was determined after electrophoretic separation of the fluorescently labeled peptide substrate and phosphorylated product on an LabChip EZ Reader II (Caliper Life Sciences, Hopkinton, Mass.).

[3] = biological target: T3, WT EML4-ALK (NIH-3T3 EML4-ALK wt v1 cells) (Homo sapiens, UniProt Q9UM73); assay: Cellular phospho-ALK (Tyr1604) ELISA assay for WT EML4-ALK; format: cell-based; settings: 1 hour, read-out: ELISA assay for WT EML4-ALK (IC50)
T3 construct: expressed in transfected cells; the other entry of the earlier key: EML4 (Q9HC35, Echinoderm microtubule-associated protein-like 4)

[4] = biological target: T4, L1196M EML4-ALK (NIH-3T3 EML4-ALK v1 L1196M cells) (Homo sapiens, UniProt Q9UM73, L1196M); assay: Cellular phospho-ALK (Tyr1604) ELISA assay for L1196M EML4-ALK; format: cell-based; settings: NIH-3T3 EML4-ALK v1 L1196M cells, 1 hour, phospho-ALK (Tyr1604); read-out: ELISA assay for L1196M EML4-ALK (IC50)
T4 construct: expressed in transfected cells; the other entry of the earlier key: EML4 (Q9HC35, Echinoderm microtubule-associated protein-like 4)

Compound | Ki [1] | Ki [2] | IC50 [3] | IC50 [4]
7-amino-3-tert-butyl-1,10,16-trimethyl-16,17-dihydro-1H-8,4-(metheno)-pyrazolo[4,3-g]pyrido[2,3-l][1,4,10]oxadiazacyclotetradecin-15(10H)-one [Example 120] | 821 nM | 146 nM | 2110 nM | > 10000 nM
7-amino-12-fluoro-3-methoxy-1,16,17-trimethyl-16,17-dihydro-1H-8,4-(azeno)pyrazolo[4,3-h][2,5,11]benzoxadiazacyclotetradecin-15(10H)-one [Example 124] | 7.4 nM | 2.1 nM | 56.2 nM | 873 nM
7-amino-12-fluoro-3-methoxy-1,16,17-trimethyl-16,17-dihydro-1H-8,4-(azeno)pyrazolo[4,3-h][2,5,11]benzoxadiazacyclotetradecin-15(10H)-one [Example 125] | 0.49 nM | 0.11 nM | 2.3 nM | 49.1 nM
12-fluoro-1,14-dimethyl-1,4,5,6,7,8-hexahydro-14H-16,20-(metheno)-pyrazolo[4,3-g][1,14,11]benzodioxazacycloheptadecin-17-amine [Example 95] | 1.9 nM | 0.35 nM | 10.4 nM | 169 nM
CCN1Cc2c(c(C)nn2C)-c2cnc(N)c(c2)OC(C)c2cc(F)ccc2C1=O (single isomer, unassigned) [Example 9, 7-amino-16-ethyl-12-fluoro-1,3,10-trimethyl-16,17-dihydro-1H-8,4-(metheno)pyrazolo[4,3-h][2,5,11]benzoxadiazacyclotetradecin-15(10H)-one] | 1.06 nM | 0.2 nM | 0.35 nM | 9.29 nM
Cc1nn(C)c2c1-c1cnc(N)c(c1)OC(C)c1cc(F)ccc1C(=O)N(C1CC1)C2 (single isomer, unassigned) [Example 11, 7-amino-16-cyclopropyl-12-fluoro-1,3,10-trimethyl-16,17-dihydro-1H-8,4-(metheno)pyrazolo[4,3-h][2,5,11]benzoxadiazacyclotetradecin-15(10H)-one] | 1.1 nM | < 0.2 nM | 1.21 nM | 27.7 nM
Cc1nn(C)c2c1-c1cnc(N)c(c1)OC(C)c1cc(F)ccc1C(=O)N(C1CC1)C2 (single isomer, unassigned) [Example 12, 7-amino-16-cyclopropyl-12-fluoro-1,3,10-trimethyl-16,17-dihydro-1H-8,4-(metheno)pyrazolo[4,3-h][2,5,11]benzoxadiazacyclotetradecin-15(10H)-one] | 29 nM | 10 nM | 34.9 nM | 700 nM
COc1c2c(nn1C)CN(C)C(=O)c1ccc(F)cc1C(C)Oc1cc-2cnc1N (single isomer, unassigned) [Example 19, 7-amino-12-fluoro-3-methoxy-2,10,16-trimethyl-16,17-dihydro-2H-8,4-(metheno)pyrazolo[4,3-h][2,5,11]benzoxadiazacyclotetradecin-15(10H)-one] | 0.9 nM | < 0.2 nM | 4.89 nM | 110 nM
CCC1Oc2cc(cnc2N)-c2c(OC)nn(C)c2CN(C)C(=O)c2ccc(F)cc21 (single isomer, unassigned) [Example 23, 7-amino-10-ethyl-12-fluoro-3-methoxy-1,16-dimethyl-16,17-dihydro-1H-8,4-(metheno)pyrazolo[4,3-h][2,5,11]benzoxadiazacyclotetradecin-15(10H)-one] | 0.29 nM | < 0.2 nM | 0.77 nM | 10.1 nM
COc1nn(C)c2c1-c1cnc(N)c(c1)OC(C1CC1)c1cc(F)ccc1C(=O)N(C)C2 (single isomer, unassigned) [Example 25, 7-amino-10-cyclopropyl-12-fluoro-3-methoxy-1,16-dimethyl-16,17-dihydro-1H-8,4-(metheno)pyrazolo[4,3-h][2,5,11]benzoxadiazacyclotetradecin-15(10H)-one] | 0.56 nM | < 0.2 nM | 1.35 nM | 21.9 nM
COc1nn(C)c2c1-c1cnc(N)c(c1)OC(C1CC1)c1cc(F)ccc1C(=O)N(C)C2 (single isomer, unassigned) [Example 26, 7-amino-10-cyclopropyl-12-fluoro-3-methoxy-1,16-dimethyl-16,17-dihydro-1H-8,4-(metheno)pyrazolo[4,3-h][2,5,11]benzoxadiazacyclotetradecin-15(10H)-one] | 15 nM | 3.3 nM | 50.5 nM | 511 nM
COc1nccc2c1-c1cnc(N)c(n1)OC(C)c1cc(F)ccc1C(=O)N(C)C2 (single isomer, unassigned) [Example 30, 8-amino-13-fluoro-4-methoxy-11,17-dimethyl-17,18-dihydro-9,5-(azeno)pyrido[3,4-h][2,5,11]benzoxadiazacyclotetradecin-16(11H)-one] | 0.67 nM | < 0.2 nM | 2.64 nM | 67.2 nM
COc1nccc2c1-c1cnc(N)c(n1)OC(C)c1cc(F)ccc1C(=O)N(C)C2 (single isomer, unassigned) [Example 31, 8-amino-13-fluoro-4-methoxy-11,17-dimethyl-17,18-dihydro-9,5-(azeno)pyrido[3,4-h][2,5,11]benzoxadiazacyclotetradecin-16(11H)-one] | 15.8 nM | 5.96 nM | 53.2 nM | 660 nM
CN1Cc2ccccc2-c2cnc(N)c(c2)OCc2cc(F)ccc2C1=O [Example 7, 8-amino-3-fluoro-17-methyl-16,17-dihydro-7,11-(metheno)dibenzo[g,l]-[1,4,10]oxadiazacyclotetradecin-18(5H)-one] | 14 nM | – | 155 nM | 2680 nM
Cc1nn(S(=O)(=O)N(C)C)c2c1-c1cnc(N)c(c1)OCc1cc(F)ccc1OCCC2 [Example 44, 7-amino-12-fluoro-N,N,3-trimethyl-17,18-dihydro-10H-8,4-(metheno)-pyrazolo[3,4-e][1,12,9]benzodioxazacyclopentadecine-1(16H)-sulfonamide] | 70 nM | 12 nM | – | –
CCc1noc2c1-c1cnc(N)c(n1)O[C@H](C)c1cc(F)ccc1C(=O)N(C)C2 [Example 47, (10R)-7-amino-3-ethyl-12-fluoro-10,16-dimethyl-16,17-dihydro-8,4-(azeno)[1,2]oxazolo[4,5-h][2,5,11]benzoxadiazacyclotetradecin-15(10H)-one] | 3.6 nM | 0.29 nM | – | 208 nM
CC1Oc2cc(cnc2N)-c2c(C(C)(C)C)nn(C)c2CN(C)C(=O)c2ncccc21 (centres unmarked) [Example 67, 7-amino-3-tert-butyl-1,10,16-trimethyl-16,17-dihydro-1H-8,4-(metheno)pyrazolo[4,3-g]pyrido[2,3-l][1,4,10]oxadiazacyclotetradecin-15(10H)-one] | > 1500 nM | 411 nM | – | –
CN1Cc2nn(C)c(C#N)c2-c2cnc(N)c(n2)O[C@@H](CF)c2cc(F)ccc2C1=O [Example 94, (10R)-7-amino-12-fluoro-10-(fluoromethyl)-2,16-dimethyl-15-oxo-10,15,16,17-tetrahydro-2H-8,4-(azeno)pyrazolo[4,3-h][2,5,11]benzoxadiazacyclotetradecine-3-carbonitrile] | 698 nM | 930 nM | – | –
C[C@H]1Oc2cc(cnc2N)-c2c(cnc3cccnc23)CN(C)C(=O)c2ccc(F)cc21 [Example 103, (11R)-8-amino-13-fluoro-11,17-dimethyl-17,18-dihydro-9,5-(metheno)-[1,5]naphthyridino[4,3-h][2,5,11]benzoxadiazacyclotetradecin-16(11H)-one] | 131 nM | 9.1 nM | – | –
CC1Oc2nc(cnc2N)-c2c(nn(C)c2C#N)COCc2ccc(F)cc21 (centres unmarked) [Example 104, 7-amino-12-fluoro-2,10-dimethyl-2,10,15,17-tetrahydro-8,4-(azeno)pyrazolo[4,3-h][2,11,5]benzodioxazacyclotetradecine-3-carbonitrile] | 57.5 nM | 8.4 nM | – | –
Cn1nc2c(c1C#N)-c1cnc(N)c(n1)OCc1cc(F)ccc1COC2 [Example 107, 7-amino-12-fluoro-2-methyl-2,10,15,17-tetrahydro-8,4-(azeno)pyrazolo[4,3-h][2,11,5]benzodioxazacyclotetradecine-3-carbonitrile] | 179 nM | 88.5 nM | – | –
CC1Oc2cc(cnc2N)-c2c(cnn2C)CCCCCOc2ccc(F)cc21 (centres unmarked) [Example 129, 12-fluoro-1,14-dimethyl-1,4,5,6,7,8-hexahydro-14H-16,20-(metheno)-pyrazolo-[4,3-g][1,14,11]benzodioxazacycloheptadecin-17-amine] | > 1500 nM | 353 nM | – | –
CC(C)Cn1nnc2c1-c1cnc(N)c(c1)O[C@H](C)c1cc(F)ccc1C(=O)N(C)C2 [Example 134, (10R)-7-amino-12-fluoro-10,16-dimethyl-3-(2-methylpropyl)-16,17-dihydro-3H-8,4-(metheno)[1,2,3]triazolo[4,5-h][2,5,11]benzoxadiazacyclotetradecin-15(10H)-one] | 20.5 nM | 3 nM | – | –
C[C@H]1Oc2cc(cnc2N)-c2c(nnn2C2CC2)CN(C)C(=O)c2ccc(F)cc21 [Example 137, (10R)-7-amino-3-cyclopropyl-12-fluoro-10,16-dimethyl-16,17-dihydro-3H-8,4-(metheno)[1,2,3]triazolo[4,5-h][2,5,11]benzoxadiazacyclotetradecin-15(10H)-one] | 72.4 nM | 6.1 nM | – | 2280 nM
